# Data reported in PMC11247486, “Improving the In Vivo Stability of [^52Mn]Mn(II) Complexes with 18-Membered Macrocyclic Chelators for PET Imaging” (Journal of Medicinal Chemistry, 2024).
# Read-outs that look alike come from different tables or passages of the source.
# Legend:
# [1] = 1H NMR relaxometry (relaxivity as a function of pH); assay type: physicochemical; conditions: pH 3, 61 MHz, 25 °C, after dissociation of the complexes
# Source text: The studies reported by Branco assumed the formation of a protonated [Mn(HL)]^3+ species for the Mn-PYAN complex characterized by protonation constant log KMnLH = 5.19 (KMnLH = [MnHL]/[MnL] × [H^+]).[42] However, our pH-potentiometric data could be fitted very well without considering the formation of protonated species or hydroxo-complexes. In order to confirm that the equilibrium model used to fit the pH-potentiometric data was correct, we measured the relaxivity (r1p) of aqueous solutions of the complexes as a function of pH (Figure 4). Relaxivity measures the ability of a paramagnetic solute to enhance the longitudinal relaxation rate of solvent water molecules, normalized for a 1 mM concentration of the paramagnetic ion.[45] The r1p values measured around neutral pH values (0.83 and 1.40 mM^–1 s^–1 at 61 MHz and 25 °C for Mn-PYAN and Mn-CHXPYAN, respectively) are typical of complexes that lack one or more water molecules in the inner coordination sphere, the observed relaxivity being the result of the outer-sphere contribution.[46] Relaxivity is fairly constant in the pH range of 6–9 but increases below pH ∼ 6 due to complex dissociation, reaching a relaxivity of 6.00 mM^–1 s^–1 at pH 3, 61 MHz, and 25 °C that is characteristic of the [Mn(H2O)6]^2+ complex.[47] The relaxivity profile matches the speciation diagrams calculated using the equilibrium constants obtained by pH potentiometry very well, which provides support for the equilibrium model used to fit the potentiometric data. It is worth noting that complex dissociation takes place at a lower pH for Mn-CHXPYAN than for Mn-PYAN, as expected, considering their pMn values.
# The relaxivity values were calculated from the longitudinal relaxation time of H2O protons (T1) measured at 61 MHz on a Stelar relaxometer connected to a Bruker WP80 NMR electromagnet adapted to variable-field measurements (15–80 MHz proton Larmor frequency). […] The longitudinal relaxation time was measured with the “inversion recovery” method (180°–τ–90°) by using 12 different τ values with a typical 90° pulse width of 10.7 μs, 4 scans. […]
# [2] = 0.2 M KNO3; cited from earlier work
# [3] = 0.2 M KNO3; cited from earlier work; remark: listed apart in the source
# [4] = pH-potentiometric titrations, ligand protonation constants; assay type: physicochemical; conditions: 0.15 M NaCl, 25°C
# Description: Chelator protonation constants (log Ki^H) defined by eq 1 were determined using pH-potentiometric titrations, which afforded four protonation constants for each chelator attributed to the protonation of the amine N atoms (Table 2, and standard deviations are shown in parentheses). [drawing 1] 1 where i = 1, 2...4. The first two protonation constants adopt nearly identical values for both chelators, while the third and fourth protonation constants are much lower for CHXPYAN than for PYAN, which is consistent with the results obtained by Jackels et al.[25] The high rigidity of CHXPYAN likely forces the protonated amines to be placed at a shorter distance than in PYAN, reducing the values of log K3^H and log K4^H for the cyclohexyl derivative due to electrostatic effects. […] The structurally related 18-membered macrocycle 18-ane-N6 is characterized by a higher basicity compared with PYAN and CHXPYAN, as expected due to the increased number of amine N atoms and its higher flexibility.[43]
# (§1) The protonation constants of PYAN and CHXPYAN and the stability constants of Mn(II) complexes were determined by pH-potentiometric titrations. The metal-to-ligand concentration ratio was 1:1 (the concentration of the ligand was generally 0.002 M). For the pH measurements and titrations, a Metrohm 888 Titrando titration workstation and Metrohm-6.0234.110 combined electrode was used. Equilibrium measurements were carried out at a constant ionic strength (0.15 M NaCl) in 6 mL samples at 25 °C. The solutions were stirred, and N2 was bubbled through them. The titrations were made in the pH range of 1.7–12.0. KH-phthalate (pH = 4.005) and borax (pH = 9.177) buffers were used to calibrate the pH meter. For the calculation of [H^+] from the measured pH values, the method proposed by Irving et al. was used as follows.[59] A 0.01 M HCl solution was titrated with a standardized NaOH solution at 0.15 M NaCl ionic strength. The differences (A) between the measured (pHread) and calculated pH (−log[H^+]) values were used to obtain the equilibrium H^+ concentration from the pH values measured in the titration experiments (A = 0.04). For the equilibrium calculations, the stoichiometric water ionic product (pKw) was also needed to calculate the [OH^–] values under basic conditions. The VNaOH – pHread data pairs of the HCl–NaOH titration obtained in the pH range of 10.5–12.0 were used to calculate the pKw value (pKw = 13.77). The protonation and stability constants were calculated with the PSEQUAD program.[60]
# [5] = pH-potentiometric titrations, stability constants of the Mn(II) complexes; assay type: physicochemical; conditions: 0.15 M NaCl, 25°C
# Description: The stability constants of the Mn(II) complexes with PYAN and CHXPYAN defined by eq 2 were also determined through pH-potentiometric titrations. [drawing 2] 2
# as §1
# [6] = Transmetalation (dissociation) kinetics of the Mn(II) complexes with Cu2+; assay type: physicochemical; conditions: 0.15 M NaCl, 25 °C
# Description: There is a wide consensus among the coordination chemistry community that kinetic inertness is more important for the safe use of metal complexes for imaging applications than thermodynamic stability.[8],[49],[50] Thus, we conducted a detailed investigation of the transmetalation kinetics of the Mn-PYAN and Mn-CHXPYAN complexes, by following their exchange reactions with Cu^2+ in the pH range of 2.5–4.5 (eq 3). [drawing 3] 3
# All reactions were carried out in the presence of a large excess of Cu^2+ in order to guarantee the pseudo-first-order kinetic conditions. The transmetalation of Mn-PYAN in the pH range ∼2.0–4.5 is very fast, and thus the rates of the reactions were measured using the stopped-flow technique. Conversely, the exchange reactions of the Mn-CHXPYAN complex are slow and could be studied by using conventional methods. The transmetalation reactions of Mn-PYAN and Mn-CHXPYAN were monitored by following the formation of the corresponding Cu(II) complexes at 295 nm.
# The kd values increase upon increase in [H^+] and are independent of the concentration of Cu^2+ as it was found for Mn-PCTA, Mn-PC3AM, and Mn-bispidine complexes.[49],[51] […] The increase in the kd values with increasing H^+ concentration can be interpreted in terms of the extremely slow spontaneous (k0, eq 4) and the proton-assisted (k*[Mn(HL), eq 6) dissociation of Mn(II) complexes. The saturation behavior of the plots of kd versus [H^+] (Figure 5) is characteristic for the equilibrium formation and the accumulation of the *[Mn(HL)] intermediate characterized by the *KH protonation constant (eq 5). The analysis of the rate constants obtained for Mn-CHXPYAN indicates a second-order dependence of kd on [H^+], which can be explained by the proton-assisted dissociation of the *[Mn(HL)] intermediate (k^H*[Mn(HL)], eq 7). [drawing 4] 4 [drawing 5] 5 [drawing 6] 6 [drawing 7] 7
# In the presence of excess of the exchanging ion, the transmetalation can be treated as a pseudo-first-order process, and the rate of reactions can be expressed with eq 8, where kd is a pseudo-first-order rate constant and [MnL]t is the total concentration of the complex. [drawing 8] 8
# Through consideration of all the possible pathways, the rate of the transmetalation of Mn-PYAN and Mn-CHXPYAN with Cu^2+ can be expressed by eq 9 [drawing 9] 9 Considering the total concentration of the Mn(II) complex ([MnL]t = [MnL] + [*Mn(HL)], as well as the equation defining the protonation constant for the formation of the *[Mn(HL)] intermediate (eq 5) and eq 8, the pseudo-first-order rate constant can be expressed as follows [drawing 10] 10 where k1 = k*[Mn(HL)] × *KH and k2 = k^H*[Mn(HL)] × *KH. The rate and protonation constants characterizing the transmetalation of Mn-PYAN and Mn-CHXPYAN with Cu^2+ have been calculated by fitting the kd values presented in Figure 5 to eq 10 and the values obtained are compared with the corresponding values of Mn-DOTA, Mn-DO3A, Mn-PCTA, Mn-PC3AM^H, and Mn-bispidine in Table 3.
# Rates of the metal exchange reactions of Mn-PYAN and Mn-CHXPYAN with Cu^2+ were measured by spectrophotometry by following the formation of the related Cu(II) complexes at 295 nm with an Applied Photophysics DX-17MV stopped-flow instrument and PerkinElmer Lambda 365 UV–vis spectrophotometer using 1.0 cm cells, respectively. The concentration of Mn-PYAN and Mn-CHXPYAN was 1.0 × 10^–4 M, whereas the concentration of Cu^2+ was 10 and 20 times higher in order to guarantee pseudo-first-order conditions. The temperature was maintained at 25 °C and the ionic strength of the solutions was kept constant with 0.15 M NaCl. The exchange rates were studied in the pH range of ca. 2.0–4.5. To keep the pH values constant, monochloroacetic acid (pH range 2.0–3.3), 1,4-dimethylpiperazine (pH range 3.3–4.1), and N-methylpiperazine (pH range 4.1–4.5) buffers were used (0.01 M). […]
SMILES,relaxivity [1] [mM^–1 s^–1],log KMnL [2],log K1^H [3],log K2^H [3],log K3^H [3],log K4^H [3],log K1^H [4],log K2^H [4],log K3^H [4],log K4^H [4],pMn ([5]; pMn = −log[Mn]free when [Mn^2+] = [L] = 10 μM at pH = 7.4),log KMnL ([5]; stability constant of the Mn(II) complex),k1 ([6]; Mn(II) complex of the chelator) [M^–1 s^–1],k2 ([6]; Mn(II) complex of the chelator),kd at pH = 7.4 ([6]; Mn(II) complex of the chelator),log*KH ([6]; protonation constant of the *[Mn(HL)] intermediate)
O.O.O.O.O.O.[Mn+2] [[Mn(H2O)6]^2+],6.00,–,–,–,–,–,–,–,–,–,–,–,–,–,–,–
"c1cc2nc(c1)CN[C@@H]1CCCC[C@H]1NCc1cccc(n1)CN[C@@H]1CCCC[C@H]1NC2 [CHXPYAN, (4^1R,4^2R,10^1R,10^2R)-3,5,9,11-tetraaza-1,7(2,6)-dipyridina-4,10(1,2)-dicyclohexanacyclododecaphane]",–,~13,9.25,8.57,4.75,4.03,9.16(2),8.27(2),4.55(2),2.54(3),7.41,12.51(3),0.23 ± 0.03,(6.4 ± 0.8) × 10^3 M^–2 s^–1,9.0 × 10^–9 s^–1,3.33 (5)
